Results: patent US9993444B2, “Use of beta-adrenergic inverse agonists for smoking cessation” (INVION, INC., priority 2011, dated 2018)
Entries after “also recorded” stand apart in the source; their conditions may differ.

Key:
[1] = acute administration; U.S. Pat. No. 6,284,800; cited from earlier work
β-adrenergic receptor = settings: cited from earlier work
asthmatic mice [2] = test: Lung histology (hematoxylin-eosin) after chronic inverse agonist treatment of ovalbumin-sensitized and -challenged mice; assay type: in vivo, Balb/cJ mice; settings: ICI-118,551 10 mg/kg subcutaneously by osmotic minipump, 7 days (day 21 to 27)
Protocol: (§1) Mice were made asthmatic by sensitization to the antigen ovalbumin. Balb/cJ mice aged 6 weeks (Jackson Animal Laboratory, Bar Harbor, Me.) were housed under specific pathogen-free conditions and fed a chicken ovalbumin-free diet. Mice were sensitized with subcutaneous injection of 25 μg of ovalbumin adsorbed to aluminum hydroxide on protocol days 2, 9, and 16. Subsequently, mice were given […] of saline solution containing 25 μg of ovalbumin intranasally, on a daily basis, from protocol days 23 through 27. A group of ovalbumin-sensitized saline-challenged mice serves as controls for systemic sensitization and respiratory challenges with ovalbumin. Prior to intranasal administrations, mice were sedated with halothane vapor. For the study of this Example, ovalbumin-sensitized and ovalbumin-challenged mice, and ovalbumin-sensitized and saline-challenged mice will be referred to as asthmatic mice and control mice, respectively.
(§2) Animals received drug treatment for 7 days from day 21 to 27 of the sensitization/challenging protocol; ICI-118,551 at 10 mg/kg, was administered 3 times a day subcutaneously by osmotic minipump (Alzet®, #2004, Durect Corporation, Cupertino, Calif.). ICI-118,551 was dissolved in 50% DMSO. […]

asthmatic mice [3] = test: Lung histology (periodic acid-Schiff stain, goblet cells/mucus) after chronic inverse agonist treatment of ovalbumin-sensitized and -challenged mice; assay type: in vivo, Balb/cJ mice
Protocol: as §1, §2

[4] = system: tracheas from asthmatic mice; settings: chronically treated asthmatic mice, excised tracheas; WO 02/29534; cited from earlier work
[5] = system: sensitized and challenged mice; test: Airway hyperresponsiveness to methacholine in a mouse model of obstructive lung disease, chronic administration; assay type: in vivo; settings: for airway hyperresponsiveness: compared to untreated sensitized and challenged mice
Description: Even though alprenolol is a β-adrenergic antagonist, it has partial agonist activity. Carvedilol is a β1/β2 non-selective adrenergic antagonist with α1-adrenergic antagonist activity.

patients with CHF = settings: cited from earlier work

Which results are given for `CC(C)NC[C@@H](O)COc1cccc2ccccc12` [D-propranolol]?
antigen-induced bronchoconstriction and airway hyperresponsiveness [1]: beneficial in inhibiting antigen-induced bronchoconstriction and reducing airway hyperresponsiveness; potency in inhibiting the β-adrenergic receptor relative to the L-form (β-adrenergic receptor; U.S. Pat. No. 5,116,867): 1/100; activity with respect to β-adrenergic receptors (β-adrenergic receptor; U.S. Pat. No. 6,284,800): inactive

Which “appearance of lung epithelial cells, hematoxylin-eosin staining (FIG. 3)” value (asthmatic mice [2]) does the source give for `Cc1ccc(OCC(O)C(C)NC(C)C)c2c1CCC2` (stereo not shown) [ICI 118,551] here?
Its value is “substantially returned to their normal appearance”.

What about the “appearance of lung epithelial cells, PAS stain (FIG. 6)” value (asthmatic mice [3]; ICI-118,551 10 mg/kg subcutaneously by osmotic minipump, 7 days (day 21 to 27)) of the same molecule?
Its value is “appear substantially normal”.

And the “transformation of lung epithelium from ciliated cells to mucus-producing goblet cells (FIGS. 1-6)” value (asthmatic mice [3]; chronic treatment)?
The value was “restores the airway epithelium to a normal healthy state; also recorded: substantially reversed the transformation of lung epithelium”.

What about the “rank of effectiveness on tracheal contraction in response to methacholine” value [4] of the same molecule?
The value was “then ICI-118,551”.

For `CC(C)NC[C@H](O)COc1cccc2ccccc12` [L-form of propranolol, propranolol], which specific lung resistance [1] is on record?
The specific lung resistance was “increased specific lung resistance”.

Which results are given for `C=CCc1ccccc1OCC(O)CNC(C)C` (stereo not shown) [alprenolol]?
airway hyperresponsiveness [5]: does not reduce airway hyperresponsiveness; also recorded: without any activity; rank of effectiveness on tracheal contraction in response to methacholine [4]: most effective compound

For `CC(C)(Cc1c[nH]c2ccccc12)NCC(O)COc1ccccc1C#N` (stereo not shown) [bucindolol], which “clinical outcome in congestive heart failure (mortality / benefit over placebo)” value (patients with CHF) is on record?
Its value is “failed to demonstrate any benefit over placebo”.

Which “clinical outcome in congestive heart failure (mortality / benefit over placebo)” value (patients with CHF) does the source give for `COc1ccccc1OCCNCC(O)COc1cccc2[nH]c3ccccc3c12` (stereo not shown) [carvedilol] here?
Its value is “significant mortality reduction”.

What about the “sensitivity of the responsiveness to methacholine” value [5] of the same molecule?
Its value is “shifts the sensitivity of the responsiveness to methacholine to lower concentrations”.

What about the airway hyperresponsiveness [5] of the same molecule?
The airway hyperresponsiveness was “does reduce airway hyperresponsiveness”.

What about the “rank of effectiveness on tracheal contraction in response to methacholine” value [4] of the same molecule?
The value was “followed by carvedilol”.

Which “clinical outcome in congestive heart failure (mortality / benefit over placebo)” value (patients with CHF) does the source give for `COCCc1ccc(OCC(O)CNC(C)C)cc1` (stereo not shown) [metoprolol] here?
Its value is “significant mortality reduction”.
